Measurements taken from patent publication US20060276460A1, “Use of piperazine phenothiazine derivatives in the manufacture of a medicament with neuroprotector and/or neurotrophic effects on cns and/or pns” (priority 2003, published 2006).

Key:
[1] = system: spinal cord motoneuron cell culture; test: Neuronal survival and proliferation of spinal cord motoneuron cell culture; format: cell-based, Wistar rats; conditions: 50, 100, 250 nmol/l; counted at 2-120 hours; compared to cultures with BDNF alone
Protocol: In vitro studies were first conducted on spinal cord motoneurons which are involved in peripheral neuropathy diseases as for example amyotrophic lateral sclerose (ALS) according to protocols described by Martinou J. C., Martinou I., Kato A. C. in Cholinergic differentiation factor (CDF/LIF) promotes survival of isolated rat embryonic motoneurons in vitro.
Cells cultures are incubated with different Fluphenazine N-Mustard dihydrochloride concentrations: 50, 100, 250 nmol/l.
Neuronal survival is then monitored at different time points; 2, 24, 48, 72, 96, 120 hours by counting the number of cells under microscope.
the percentage of neuronal survival obtained when cells cultures are incubated with flufenazine is compared to cell cultures incubated alone only with 50 microgram's of brain derived neurotrophic factor (BDNF).

cortical neurons [2] = test: Glutamic acid intoxication assay (LDH release); format: cell-based, Wistar rats
Protocol: Further studies were conducted on cortical neurons intoxicated with glutamic acid according to the protocol described by Nilsen J. and Brinton R D in Impact of progestins on oestrogen-induced neuroprotection:synergy by progesterone and 19-norprogesterone and antagonism by medoxyprogesterone acetate. Endocrinology 143:205-212 2002.
(§1) Two types of primary neuronal cell cultures i.e. cortical and spinal cord neurons are isolated from 15-17 days old foetuses of female Wistar rats and cultured in neurobasal/B27 medium until cell differentiation.
The neuroprotective activity is assessed on glu-induced cortical neurons loss. The process of death is initiated by 10 min treatment of neuron cell cultures with neurotoxic concentration of glutamic acid at 100 micromol/l.
The ability of flufenazine to reverse the death process is achieved by subsequent exposure of cells to flufenazine concentrations of 100 and 200 nmol/l. The quantity of LDH released is used to estimate the degree of intoxication and the decrease of quantity released is proportional at cellular resistance to Glu neurotoxicity.
the percentage of neuronal survival obtained when intoxicated cells cultures are incubated with flufenazine is compared to cell cultures without flufenazine.

mesencephalic neurons = conditions: 250 nmol/l
Protocol: Cortical neurons are involved in Alzheimer's disease and also in mesencephale neurons or dopaminergic neurons which are themselves involved in Parkinson's disease. (see also protocol described by Y. Mitsumotol, A. Watanabe, T. Miyauchi, F. Jimma, and T. Moriizumi in Stimulation of the regrowth of MPP+/damaged dopaminergic fibers by the treatment of mesencephalic cultures with basigin; J Neural Transm (2001) 108: 1127-1134).
The neuroprotective activity is assessed on MPP+ induced mesencephalic neuron loss with flufenazine concentration of 250 nmol/l
The cells are intoxicated by 2 micromol of MPP+ as neurotoxic during 24 h. The cell culture is then treated with 250 nm/l of flufenazine.
The percentage of mesencephalic neuronal survival obtained when intoxicated cells cultures are incubated with flufenazine is compared to cell cultures without flufenazine.

cortical neurons [3] = test: Neurotrophic assay, neurite outgrowth in cortical neuronal cultures; format: cell-based, Wistar rats; conditions: 200 nmol/l; 24 h exposure
Description: The neurotrophic effect i.e. the neurite outgrowth with flufenazine was investigated on both cortical and spinal cord neuronal cultures according to the protocol described by Lucius R, Sievers J. in Postnatal retinal ganglion cells in vitro: protection against reactive oxygen species (ROS)-induced axonal degeneration by cocultured astrocytes Brain Res Dec. 16, 1996;743(1-2):56-62.
as §1
The ability of flufenazine to induce neurite outgrowth is investigated both in cortical and spinal cord neuronal cultures after 24 h exposure to flufenazine.
The neurite length as well as the percentage of cells with neurites are quantified by careful microscopic inspection. On cortex neurons type, the results are depicted in FIG. 4; the cortex neurotrophic effect of flufenazine (200 nmol/l) is expressed as an increase of 30% on neurites length compared to the neurites length in the control cortex neurons

SOD mice = test: Survival rate of SOD mice after oral administration; format: in vivo
Protocol: In vivo studies were conducted on transgenic animals with ALS causing mutations, a model for neurodegenerative diseases according to protocols described by Gurney Me, Pu H, Chiu Ay, Dal Canto Mc, Polchow Cy, Alexander Dd, Caliendo J, Hentati A, Kwon Yw, Deng Hx, et al. in Motor neuron degeneration in mice that express a human Cu,Zn superoxide dismutase mutation. Science (1994) 264:1772-1775; and by Mohajeri Mh, Figlewicz Da, Bohn Mc in Selective loss of alpha motoneurons innervating the medial gastrocnemius muscle in a model of amyotrophic lateral sclerosis. Exp. Neurol. (1998) 150:329-336.
Mice are used at 4 months of age i.e. about 2 weeks before the appearance of the first symptoms.
They are genotyped for SOD1 gene using PCR method.
Animals are assigned into four groups to receive a daily oral administration of 1)saline as control, 2) 0.1 mg/kg, 3) 1 mg/kg, 4) 10 mg/kg of flufenazine, until death by weakness and paralysis occurs.
Survival rate was recorded on a daily basis.

OCCN1CCN(CCCN2c3ccccc3Sc3ccc(C(F)(F)F)cc32)CC1 [flufenazine, 4-[3-[2-(trifluoromethyl)-10H-phenothiazin-10-yl]propyl]-1-pyperazine-ethanol]
percentage of neuronal survival [1]: increase regularly from 48 h until 120 h
increase of percentage of neuronal survival after glutamic acid intoxication (cortical neurons [2]; 200 nmol/l, after 10 min glutamic acid 100 micromol/l, compared to cultures without flufenazine): 10%
effect on cell survival in the absence of neurotoxic compound (cortical neurons [2]; no glutamic acid, FIG. 2 left part): no or very slight effect
neurite expansion versus control neurons (mesencephalic neurons): longer neurite expansion than in control neurons
reversal of MPP+ induced neuronal loss (mesencephalic neurons): reverses MPP+ induced neuronal loss to the same extent as Riluzole
increase of TH positives cells (mesencephalic neurons; after 2 micromol MPP+ during 24 h, observed after 48 hours): 30%
increase on neurites length compared to control cortex neurons (cortical neurons [3]): 30%
survival of SOD mice compared to saline treated group (SOD mice; 0.1 mg/kg daily oral): enhanced the survival
survival of SOD mice compared to saline treated group (SOD mice; 1 mg/kg daily oral): enhanced the survival
survival of SOD mice compared to saline treated group (SOD mice; 10 mg/kg daily oral): adverse effect and induced a leftward shift in the survival curve
